Here are results for 2 compounds from PMC7435722, “Apoferritin and Apoferritin-Capped Metal Nanoparticles Inhibit Arginine Kinase of Trypanosoma brucei” (Molecules, 2020).

Read-outs that look alike come from different tables or passages of the source.

The subject of the test is T1, arginine kinase of T. brucei (recombinant form).
T1 construct: gene AK1; recombinant, obtained from Rhodes University laboratory
As to the kind of experiment: phosphate release, molybdate colorimetric […] nm, nonlinear Michaelis-Menten fit. The test is classed as biochemical, Trypanosoma brucei. The following applies: no inhibitor, Mg sulfate, 100 mM Tris-HCl pH 8.6, 30 °C.

In the case of `Nc1ncnc2c1ncn2[C@@H]1O[C@H](COP(=O)(O)OP(=O)(O)OP(=O)(O)O)[C@@H](O)[C@H]1O` [ATP], the Michaelis constant (Km) (2 mM L-arginine fixed, ATP 0.1-0.5 mM, read-out: Km (ATP)) is 5 µM.

`N=C(N)NCCC[C@H](N)C(=O)O` [L-arginine]: where the note is “0.5 mM ATP fixed, L-arginine 0.5-2.5 mM, read-out: Km (L-arginine)”, the Km turned out to be 21 ± 10 µM.

What is called Km is the substrate concentration at which the rate is half of its maximum.
